Measured values as given in ChEMBL document CHEMBL1148184, “Gloiosiphones A and B, Novel Metabolites from the Red Marine Alga Gloiosiphonia verticillaris” (J Nat Prod, 1993).
The source made the active and inactive calls.

Experiments:
Format in all cases: functional, organism-based
[1] = tested on: Bacillus subtilis; assay: Antibacterial activity against Bacillus subtilis ATCC 6081
[2] = tested on: Staphylococcus aureus; assay: Antibacterial activity against Staphylococcus aureus ATCC 12600
[3] = tested on: Escherichia coli; assay: Antibacterial activity against Escherichia coli ATCC 11775
[4] = tested on: Salmonella typhimurium; assay: Antibacterial activity against Salmonella Typhimurium ATCC 14028; conditions: Salmonella enterica subsp. enterica serovar Typhimurium

Measured: Activity

COC[C@@]1(O)C(=O)CC[C@@]12CC(OC)=C(OC)C2=O
inactive: [1] | [2] | [3] | [4]

COCC1(O)OCCC1=O (stereo not drawn)
inactive: [1] | [2] | [3] | [4]
